For 79 compounds, RP-LC retention time results are on record in the METLIN SMRT retention time set (Domingo-Almenara et al. 2019).

This data set can be described thus: gradient 5% acetonitrile 3 min, to 50% in 2 min, to 85% in 15 min, held 3 min, 100 µL/min. The following applies: column: Zorbax Extend-C18 2.1 x 50 mm; eluents: water / acetonitrile, 0.1% formic acid. An outline of the steps: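 Mixtures of ~100 pure standards were chromatographed on a Zorbax Extend-C18 column (2.1 × 50 mm, 1.8 μm) at 100 μL/min using water and acetonitrile, each with 0.1% formic acid. Detection used a quadrupole time-of-flight mass spectrometer in positive and negative ionization mode, and data collection spanned 3 months. Retention time was obtained from adduct peaks picked computationally and each checked manually.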
In turn, `O=C1CCCc2cc(S(=O)(=O)N3CCC(C(=O)NCc4ccccc4Cl)CC3)ccc2N1` came in with an RP-LC retention time of 760 s.
As to `COc1ccc(N2CCN(C(=O)Cc3csc4nc(-c5ccc(OC)c(OC)c5)cn34)CC2)cc1`, the RP-LC retention time was determined as 686 s.
The figure for `O=S(=O)(c1ccc2c(c1)CCCN2)N1CCC[C@H]2CCCC[C@@H]21` is 1190 s; for `Cc1ccnc(Nc2nc(C)c(C(=O)N3CCOCC3)s2)c1` it is 617 s.
For the compound `Cc1cccc(S(=O)(=O)N2CCCC(Cn3c(C4CC4)nc4cccnc43)C2)c1` (centres undefined), the RP-LC retention time is 791 s.
To `CCn1cc(-c2nc(C)c(C(=O)NCc3ccc(C)cc3)s2)c2cccnc21` belongs 1000 s; to `COc1ccc(N2CC(c3noc(-c4cc(OC)cc(OC)c4)n3)CC2=O)cc1` (centres undefined), 959 s; to `Cc1ccc(C)c(Sc2ccc(N3CCC(C(=O)NCCC4=CCCCC4)CC3)nn2)c1`, 1010 s.
To `Cc1ccc(CNC(=O)c2nc3cccnc3n(CC(C)C)c2=O)cc1C` belongs 1010 s.
Turning to `CCN(CC)C(=O)c1ccc(-c2nc3cc(NS(=O)(=O)c4cc(F)ccc4C)ccc3n2C)cc1`, the RP-LC retention time came out at 723 s.
The figure for `O=C(C1CCC1)N1CCc2sc(S(=O)(=O)Nc3cccc(Cl)c3)cc2C1` is 941 s; for `CC(C)Cn1cc(CCNC(=O)c2ccccc2C(F)(F)F)c2cccnc21` it is 854 s.
To `COc1ccc(OC)c(Nc2nc(NCC3CCCO3)nc(N)c2[N+](=O)[O-])c1` (centres undefined) belongs 810 s.
`O=C(NC1CCCN(c2cc(-c3ccncc3)[nH]n2)C1)c1ccc(F)cc1` (centres undefined) displayed an RP-LC retention time of 599 s.
The figure for `CCOc1ccccc1N1CCN(c2cc(C(=O)O)c3cc(NC(=O)C4CCCC4)ccc3n2)CC1` is 638 s; for `COc1ccc(S(=O)(=O)CCC(=O)N2CCCC2c2nc(-c3ccc(C)cc3)no2)cc1` (centres undefined) it is 951 s.
The compound `CC(C)CC(=O)Nc1nc(-c2ccc3c(c2)N(C)C(=O)CO3)cs1` had an RP-LC retention time of 830 s.
Compound `Cc1ccc(C(=O)COc2ccc(N3C(=O)C4CCC(C)CC4C3=O)cc2)cc1C` (centres undefined) gave an RP-LC retention time of 1120 s.
Compound `O=C(NCc1cc(F)ccc1F)c1cn2c(n1)CCCC2` came in with an RP-LC retention time of 601 s.
Compound `Cc1ccc(Cn2nc3ccc(S(=O)(=O)N4CCc5ccccc5C4)cn3c2=O)cc1` gave an RP-LC retention time of 1050 s.
`Cc1nn(Cc2nc(-c3ccc(NC(=O)c4ccco4)cc3)oc2C)c(C)c1C` displayed an RP-LC retention time of 828 s.
`CCOc1cc(C(=O)Nc2c(-c3ccc(F)cc3)nc3ccccn23)cc(OCC)c1OCC` gave an RP-LC retention time of 788 s.
The figure for `Cc1nn(-c2ccc(F)cc2)c2nc(N3CCCC(C(=O)NCc4ccc(Cl)cc4)C3)sc12` (centres undefined) is 1190 s.
Consider `Cn1nccc1-c1cccc(-c2noc(-c3cccc(Cl)c3)n2)c1`, for which the RP-LC retention time turned out to be 1260 s.
Regarding `COc1ccc(NC(=O)COc2cc(C)nc(N3CCN(c4ccccc4)CC3)n2)cc1`, the RP-LC retention time worked out at 781 s.
`COc1ccc(N2CCN(C(=O)c3cn4ccc(C)cc4n3)CC2)cc1`: the RP-LC retention time stood at 615 s.
The compound `CCC(c1cccs1)N1C(=O)[C@H]2CN(S(=O)(=O)c3ccc(OC)cc3)C[C@H]2C1=O` (some centres undefined) came in with an RP-LC retention time of 910 s.
The figure for `CSc1cccc(NC(=O)Cc2nnc(-c3ccc4ncccc4c3)o2)c1` is 753 s; for `Cc1ccc(NS(=O)(=O)c2cc3n(c2)CCCNC3=O)c(Cl)c1` it is 686 s; for `COCCOC1CCC12CCN(Cc1ccccc1C#N)CC2` (centres undefined) it is 610 s.
The figure for `CC(C)CC(=O)N1CCN(c2nc(CN3CCOCC3)cs2)CC1` is 590 s; for `CCOC(=O)c1ccc(NC(=O)NCc2ccccc2)cc1` it is 817 s.
The figure for `Cc1ccc(NC(=O)NC2CCN(c3ccc(F)cc3)C2=O)cc1F` (centres undefined) is 886 s; for `Cc1cc(C(=O)Nc2nc(-c3ccccc3)cs2)ccc1[N+](=O)[O-]` it is 1080 s.
`Cc1nnc(C2CCCCCN2S(=O)(=O)c2ccc(F)c(C)c2)o1` (centres undefined) yielded an RP-LC retention time of 893 s.
Regarding `CCn1c(=O)c(N2CCCC(C(=O)N3CCCCCC3)C2)nc2cccnc21` (centres undefined), the RP-LC retention time is 1000 s.
The figure for `Cc1nc(-c2cccc(NC(=O)CCn3nnc4ccccc4c3=O)c2)cs1` is 739 s.
On to `COc1ccc(N2CCN(C(=O)CN3C(=O)CN(C)C(=O)c4ccccc43)CC2)cc1`, for which the RP-LC retention time was found to be 624 s.
The compound `CCN(CC)C(=O)c1ccc2oc(CN3CCN(C(=O)NCC(C)C)CC3)nc2c1` had an RP-LC retention time of 624 s.
The figure for `Cc1ccc(-c2noc(Cn3ccnc3C)n2)cc1` is 629 s; for `CCN(CC)C(=O)c1ccc2c(c1)N(CC(=O)N1CCCCC1)C(=O)C1CCCCN21` (centres undefined) it is 795 s.
The compound `Cc1nc(-c2ccc(C(=O)N3CC(=O)Nc4ccccc43)cc2)no1` yielded an RP-LC retention time of 668 s.
The figure for `CCn1cc(-c2nc(CC(=O)Nc3ccc(F)cc3)cs2)c2cccnc21` is 894 s.
`O=C(CSc1nc(N2CCCCC2)nc2ccccc12)Nc1ccc(Cl)cc1`: the RP-LC retention time was determined as 804 s.
To `COC(=O)Nc1ccc(CC(=O)NCC(F)(F)F)cc1` belongs 639 s.
The figure for `O=C(CCc1c(-c2ccc(Cl)cc2)nc2ccccn12)NC1CCCCCC1` is 712 s; for `COCCn1c(=O)c2cc(C(=O)Nc3ccccc3)nn2c2ccccc21` it is 714 s; for `COc1ccc(Cl)cc1NS(=O)(=O)c1cn(C(C)C)c2ncccc12` it is 972 s.
To `CCOc1cc(=O)n2c(c1C(=O)Nc1cc(OC)cc(OC)c1)CCCC2` belongs 718 s; to `O=C(C1=CN(c2cc(F)cc(F)c2)c2cc(F)ccc2S1(=O)=O)N1CCCC1`, 829 s; to `O=C(Nc1ccc(C2(C(=O)N3CCN(c4ccc(F)cc4)CC3)CCC2)cc1)C1CC1`, 922 s.
With `Cc1nc(-c2cccc(NC(=O)c3ccc(N4CCCC4)nn3)c2)cs1`, the RP-LC retention time came out at 676 s.
The figure for `Cn1cc2c3c(cccc31)CN(C(=O)c1ccc(Cl)cc1)CC2` is 988 s; for `Cc1ccc(CNC(=O)C2(C)CN(S(C)(=O)=O)CC(=O)N2Cc2cccc(C)c2)cc1` (centres undefined) it is 868 s.
`Cc1ccc(C(=O)Nc2nccnc2C(=O)NC(C)c2ccc(F)cc2)cc1` (centres undefined) registered an RP-LC retention time of 1060 s.
To `CNC(=O)c1ccc(-n2cccc2)nc1` belongs 645 s; to `O=C(NCCN1CCOCC1)c1nnc(-c2ccc(S(=O)(=O)N3CCCCC3)cc2)o1`, 647 s.
To `COc1cccc(-c2ccnc3nc(-c4ccccc4)nn23)c1` belongs 919 s; to `COc1ccc(-c2nnc(CC(=O)N3CCOCC3)o2)cc1`, 647 s.
The figure for `CN(C)c1ccc(CNC(=O)C2CCN(c3cnc(N4CCCC4)nc3)CC2)cc1` is 557 s; for `Cc1cccc(NC(=O)C(=O)NCCN2CCN(c3ccc(F)cc3)CC2)c1C` it is 584 s; for `Cc1cc(C)n(-c2ccc(N3CCN(C(=O)COc4ncccn4)CC3)nn2)n1` it is 596 s.
With `CCN(CC)c1nc2cc(C(=O)OC)ccc2c(=O)n1CCc1ccccc1`, the RP-LC retention time came out at 1250 s.
The figure for `CNC(=O)c1cc(N2CCCC2)nc2c(C)cccc12` is 567 s.
To `COc1ccc(C(=O)N2CCCC(COc3ccc(C(=O)NC(C)C)cc3)C2)c(C)c1` (centres undefined) belongs 842 s.
In the case of `COc1ccccc1-c1nc(C2CC(=O)N(c3ccc(Cl)cc3)C2)no1` (centres undefined), the RP-LC retention time came to 1020 s.
To `CCc1ccc(OCC(=O)Nc2nnc(SCc3nnc(-c4ccccc4)o3)s2)cc1` belongs 1010 s; to `CCCC(NC(=O)c1cc(F)cc(F)c1)C(=O)Nc1nc2ccccc2[nH]1` (centres undefined), 733 s.
Regarding `O=C(CCC(=O)Nc1noc2ccccc12)NCCc1ccc(Cl)cc1`, the RP-LC retention time came to 816 s.
To `CC1CCCN(S(=O)(=O)c2ccc(-n3cnc(C(=O)NC4CC4)c3)nc2)C1` (centres undefined) belongs 798 s; to `Cc1ccc(/C=C/c2nc(-c3ccc4c(c3)oc(=O)n4C(C)C)no2)o1`, 659 s; to `CCC(C)NC(=O)NC1CCN(C2=NS(=O)(=O)C(c3ccc(C)c(C)c3)=C2C)CC1` (centres undefined), 888 s.
To `Cc1ccsc1-c1nnc(CC(=O)N2CCN(Cc3ccccc3)CC2)o1` belongs 630 s; to `O=S(=O)(Cc1ccccc1F)N1CCOc2ccc(N3CCOCC3)cc2C1`, 861 s; to `Cc1nccnc1Sc1ccccc1`, 956 s.
The figure for `COc1ccc(-c2noc(CN3N=NC4C(=O)N(c5ccc(C)c(F)c5)C(=O)C43)n2)c(OC)c1` (centres undefined) is 844 s.
For `O=C(c1cn(-c2cc(N3CCCCC3)ncn2)cn1)N1CCN(C(=O)c2ccco2)CC1`, the RP-LC retention time was found to be 675 s.
`COc1ccc(-c2nc(-c3ccc4c(c3)oc(=O)n4C(C)C)no2)c(C)c1` returned an RP-LC retention time of 1270 s.
The figure for `Cc1ccc(C)c(S(=O)(=O)N2CCCN(C)c3ccccc32)c1` is 1100 s.
